Data taken from patent US9194872B2, “Potentiation of nanopharyngeal cancer radiotherapy by inhibitors of leukemia inhibitory factor” (Chang Gung University, priority 2013, dated 2015).

B1: soluble leukemia inhibitory factor receptor: non-transmembrane protein (soluble receptor) that can bind leukemia inhibitory factor (protein, UniProt P42702 45-833, looked up)
extracellular domain: QKKGAPHDLKCVTNNLQVWNCSWKAPSGTGRGTDYEVCIENRSRSCYQLEKTSIKIPALSHGDYEITINSLHDFGSSTSKFTLNEQNVSLIPDTPEILNLSADFSTSTLYLKWNDRGSVFPHRSNVIWEIKVLRKESMELVKLVTHNTTLNGKDTLHHWSWASDMPLECAIHFVEIRCYIDNLHFSGLEEWSDWSPVKNISWIPDSQTKVFPQDKVILVGSDITFCCVSQEKVLSALIGHTNCPLIHLDGENVAIKIRNISVSASSGTNVVFTTEDNIFGTVIFAGYPPDTPQQLNCETHDLKEIICSWNPGRVTALVGPRATSYTLVESFSGKYVRLKRAEAPTNESYQLLFQMLPNQEIYNFTLNAHNPLGRSQSTILVNITEKVYPHTPTSFKVKDINSTAVKLSWHLPGNFAKINFLCEIEIKKSNSVQEQRNVTIKGVENSSYLVALDKLNPYTLYTFRIRCSTETFWKWSKWSNKKQHLTTEASPSKGPDTWREWSSDGKNLIIYWKPLPINEANGKILSYNVSCSSDEETQSLSEIPDPQHKAEIRLDKNDYIISVVAKNSVGSSPPSKIASMEIPNDDLKIEQVVGMGKGILLTWHYDPNMTCDYVIKWCNSSRSEPCLMDWRKVPSNSTETVIESDEFRPGIRYNFFLYGCRNQGYQLLRSMIGYIEELAPIVAPNFTVEDTSADSILVKWEDIPVEELRGFLRGYLFYFGKGERDTSKMRVLESGRSDIKVKNITDISQKTLRIADLQGKTSYHLVLRAYTDGGVGPEKSMYVVTKENS
modifications: extracellular domain

Legend:
[1] = system: TW06 cell transfected with firefly luciferase 2 reporter gene; test: Tumor growth of mouse with intratumoral injection (in vivo imaging system); design: species or system NOD/SCID mouse; details: twice per week, 4 weeks, LIF 150-200 ng, sLIFR 1-2 μg, compared with PBS, FIGS. 3B, 3C
Procedure: In addition, a TW06 cell transfected with firefly luciferase 2 reporter gene was subcutaneously injected into the thigh of a 7-week-old NOD/SCID (non-obese diabetic/severe-combined immunodeficient) mouse. Until the tumor on the mouse's thigh was grown to a volume of 50 mm^3, PBS, leukemia inhibitory factor (150-200 ng, twice per week, 4 weeks), or a soluble leukemia inhibitory factor receptor (1-2 μg, twice per week, 4 weeks) was intratumorally injected into the mouse. Finally, the mouse's tumor was observed, and its activity and volume were detected by an in vivo imaging system at a certain time point after the injection.

CNE1 cells = test: Resistance of nasopharyngeal cancer cell to radiation in various doses (xCelligence); type: cell-based; details: LIF 10 ng/ml; for IC50 value of the radiation for the treated cells: FIG. 4B
Procedure: Firstly, 6×10^3 CNE1 cells were seeded. After cultivated at 37° C. overnight, the seeded cells were treated with PBS and leukemia inhibitory factor (10 ng/ml), and then radiation in various doses were emitted to the treated cells. Finally, an xCelligence real time cell analyzer was used to detect the cell growth at a certain time point after this emission.

[2] = system: TW06 cell transfected with firefly luciferase 2 reporter gene; test: Tumor growth of mouse with intratumoral injection and radiation in 7 Gy; type: in vivo, NOD/SCID mouse; details: twice per week, 4 weeks, LIF 150-200 ng, sLIFR 1-2 μg, radiation 7 Gy following first injection, FIGS. 5A, 5B
Procedure: A TW06 cell transfected with firefly luciferase 2 reporter gene was subcutaneously injected into the thigh of a 7-week-old NOD/SCID mouse. Until the tumor on the thigh was grown to a volume of 60-100 mm^3, PBS, leukemia inhibitory factor (150-200 ng, twice per week, 4 weeks), or a soluble leukemia inhibitory factor receptor (1-2 μg, twice per week, 4 weeks) was intratumorally injected into the mouse, and then radiation in a dose of 7 Gy were emitted to the mouse following the first injection. Finally, the mouse's tumor was observed, and its activity and volume were detected by an in vivo imaging system at a certain time point after the emission.

[3] = system: nasopharyngeal cancer cell; test: Caspase3/7 positive cells after substance treatment and radiation in 4 Gy; type: cell-based; details: radiation 4 Gy; 96th hour after emission; LIF versus sLIFR treatment; FIG. 4D
CNE1 cells or TW06 cells = test: Cell survival after substance treatment and radiation in 4 Gy (xCelligence); type: cell-based; details: radiation 4 Gy, sLIFR 1 μg/ml, LIF 10 ng/ml, FIG. 4C
Procedure: In another aspect, 6×10^3 CNE1 cells or TW06 cells were seeded, and then cultivated at 37° C. overnight. The cultivated cells were treated with PBS, a soluble leukemia inhibitory factor receptor (1 μg/ml), leukemia inhibitory factor (10 ng/ml), or leukemia inhibitory factor plus a soluble leukemia inhibitory factor receptor. After which, radiation in 4 Gy were emitted to the treated cells. Finally, an xCelligence real time cell analyzer was used to detect the cell survival at a certain time point after this emission.

[4] = system: ATM, p53, γH2AX, NBS1 or CDC25C; test: Western blotting of apoptosis-related and DNA damage-related proteins after radiation in 4 Gy; type: cell-based; details: TW06 and CNE1 cells; radiation 4 Gy; 10th minute following emission; sLIFR versus LIF; FIGS. 4E, 4F
TW06 cells = test: Growth of nasopharyngeal cancer cell in vitro (xCelligence real time cell analyzer); type: cell-based; details: sLIFR 1 μg/ml, LIF 10 ng/ml, compared among PBS, sLIFR plus LIF, FIG. 3A
Procedure: 6×10^3 TW06 cells were seeded, and then cultivated at 37° C. overnight. These cells were treated with PBS, a soluble leukemia inhibitory factor receptor (1 μg/ml), leukemia inhibitory factor (10 ng/ml), or a soluble leukemia inhibitory factor receptor plus leukemia inhibitory factor. After which, an xCelligence real time cell analyzer (Roche Applied Science) was used to detect the cell growth at a certain time point after this treatment.

IC50 value of the radiation for the treated cells (CNE1 cells; 48th hour after radiation emission (PBS 1.5 Gy)) | IC50 value of the radiation for the treated cells (CNE1 cells; 55th hour after radiation emission (PBS 1.3 Gy)) | Molecule | tumor volume of the mouse [1] | growth of cells with radiation emission (CNE1 cells; radiation in various doses, versus PBS, FIG. 4A) | tumor volume of the mouse with radiation emission [2] | Caspase3/7 expression level [3] | growth of cells with radiation emission (CNE1 cells or TW06 cells) | activation/phosphorylation of apoptosis-related and DNA damage-related proteins [4] | growth of cells (TW06 cells)
3.7 Gy | 5.8 Gy | leukemia inhibitory factor: a cytokine belonging to the interleukin-6 family and mediating cell growth through inhibition of cell differentiation | the biggest | more obvious than that with PBS treatment and radiation emission | the biggest | low Caspase3/7 expression level |  |  | 
 |  | B1 | the smallest |  | the smallest |  | the most unobvious | activated/phosphorylated more strongly | the most unobvious
